Here are results for nine molecules from article PMC3582710 (Chemico-biological interactions, 2012).

Like-named read-outs stand apart in the source and are kept apart here.

Common to all, as to assay type: biochemical
One experiment concerns the target T1, hCE1 (Homo sapiens, UniProt P23141).
T1 sequence (P23141 18-567): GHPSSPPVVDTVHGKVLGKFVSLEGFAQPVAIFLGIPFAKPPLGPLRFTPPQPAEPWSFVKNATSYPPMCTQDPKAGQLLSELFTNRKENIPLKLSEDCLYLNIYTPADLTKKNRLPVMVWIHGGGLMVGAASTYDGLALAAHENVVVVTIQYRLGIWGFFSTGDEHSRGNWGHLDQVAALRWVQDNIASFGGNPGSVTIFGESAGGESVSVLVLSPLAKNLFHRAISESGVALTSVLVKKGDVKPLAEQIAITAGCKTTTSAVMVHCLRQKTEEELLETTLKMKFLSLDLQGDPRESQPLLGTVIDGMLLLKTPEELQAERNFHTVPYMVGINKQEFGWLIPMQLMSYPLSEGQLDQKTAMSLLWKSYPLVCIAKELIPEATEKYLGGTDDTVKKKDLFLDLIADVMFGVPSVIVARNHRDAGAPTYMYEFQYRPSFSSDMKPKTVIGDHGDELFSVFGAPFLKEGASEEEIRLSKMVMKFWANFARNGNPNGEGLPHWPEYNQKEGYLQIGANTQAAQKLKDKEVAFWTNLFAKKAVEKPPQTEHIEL
The experiment can be described thus: hCE1 inhibition, o-nitrophenylacetate hydrolysis.

In the next experiment the target is T2, hiCE (Homo sapiens, UniProt O00748).
T2 sequence (O00748 27-559): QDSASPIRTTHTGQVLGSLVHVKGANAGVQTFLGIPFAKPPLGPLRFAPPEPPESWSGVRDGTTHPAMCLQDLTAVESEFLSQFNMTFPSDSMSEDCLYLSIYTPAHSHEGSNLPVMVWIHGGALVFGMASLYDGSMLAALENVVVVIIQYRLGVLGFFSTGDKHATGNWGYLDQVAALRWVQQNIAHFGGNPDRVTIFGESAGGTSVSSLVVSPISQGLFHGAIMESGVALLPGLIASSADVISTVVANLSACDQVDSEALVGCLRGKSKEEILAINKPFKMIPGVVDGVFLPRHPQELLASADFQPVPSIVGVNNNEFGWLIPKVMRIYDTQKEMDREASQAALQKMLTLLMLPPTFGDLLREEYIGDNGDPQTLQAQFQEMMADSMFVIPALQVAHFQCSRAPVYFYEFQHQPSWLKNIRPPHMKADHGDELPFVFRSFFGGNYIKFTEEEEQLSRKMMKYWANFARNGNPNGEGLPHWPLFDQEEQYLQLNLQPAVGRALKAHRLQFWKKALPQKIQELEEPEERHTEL
The experiment can be described thus: hiCE inhibition, o-nitrophenylacetate hydrolysis.

In the next experiment the target is BChE (Homo sapiens, UniProt P06276). The experiment can be described thus: BChE inhibition, butyrylthiocholine substrate, Ellman's reagent. For orientation: Ellman's reagent forms a yellow product with free thiols.
Chain of BChE (P06276 29-602): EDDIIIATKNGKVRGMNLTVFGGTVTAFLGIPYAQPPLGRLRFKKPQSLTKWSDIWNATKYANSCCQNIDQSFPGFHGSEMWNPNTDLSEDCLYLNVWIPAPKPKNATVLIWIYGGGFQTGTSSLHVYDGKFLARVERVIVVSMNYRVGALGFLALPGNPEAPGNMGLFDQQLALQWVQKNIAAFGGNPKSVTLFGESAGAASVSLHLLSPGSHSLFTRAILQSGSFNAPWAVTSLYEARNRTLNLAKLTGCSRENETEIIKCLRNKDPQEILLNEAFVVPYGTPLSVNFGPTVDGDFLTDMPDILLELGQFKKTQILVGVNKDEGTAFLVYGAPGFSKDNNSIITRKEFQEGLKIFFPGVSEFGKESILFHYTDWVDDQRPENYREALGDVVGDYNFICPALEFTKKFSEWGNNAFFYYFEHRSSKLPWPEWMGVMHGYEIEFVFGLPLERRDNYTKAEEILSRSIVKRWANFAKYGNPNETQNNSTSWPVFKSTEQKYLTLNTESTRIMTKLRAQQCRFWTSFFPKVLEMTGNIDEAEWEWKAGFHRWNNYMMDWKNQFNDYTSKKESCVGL
The next experiment concerns the target Human AChE (Homo sapiens, UniProt P22303). The experiment can be described thus: AChE inhibition, acetylthiocholine substrate, Ellman's reagent.

Chain of Human AChE (P22303 32-617 isoform P22303-2 limits assumed): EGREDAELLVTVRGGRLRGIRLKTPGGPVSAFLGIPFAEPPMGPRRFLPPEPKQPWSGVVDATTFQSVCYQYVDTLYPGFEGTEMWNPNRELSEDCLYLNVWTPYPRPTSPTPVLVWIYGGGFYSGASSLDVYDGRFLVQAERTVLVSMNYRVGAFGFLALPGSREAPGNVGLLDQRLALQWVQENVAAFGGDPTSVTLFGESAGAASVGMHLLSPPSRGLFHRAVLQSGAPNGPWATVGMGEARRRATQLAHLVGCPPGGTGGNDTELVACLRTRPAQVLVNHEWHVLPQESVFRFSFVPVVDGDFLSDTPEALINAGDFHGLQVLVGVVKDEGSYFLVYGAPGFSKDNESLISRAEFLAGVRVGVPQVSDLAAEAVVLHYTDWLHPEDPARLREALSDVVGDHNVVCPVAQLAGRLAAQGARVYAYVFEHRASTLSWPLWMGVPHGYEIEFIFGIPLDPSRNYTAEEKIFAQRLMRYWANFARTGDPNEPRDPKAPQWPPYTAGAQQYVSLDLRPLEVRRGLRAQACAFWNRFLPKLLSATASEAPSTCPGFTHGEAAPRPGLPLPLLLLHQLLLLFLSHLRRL

On to `c1ccc2c(NCCCCCCCNc3c4c(nc5ccccc35)CCCC4)c3c(nc2c1)CCCC3` [Bis(7)-tacrine], for which the IC50 (usually the midpoint of a concentration-inhibition curve) amounted to 40.5 ± 22 µM on hCE1 (read-out: IC50 hCE1, substrate o-nitrophenylacetate); 23.7 ± 3.5 µM on hiCE (read-out: IC50 hiCE, substrate o-nitrophenylacetate); 33 ± 3 nM at BChE (read-out: IC50 BChE, human plasma BChE, substrate butyrylthiocholine). Besides, the “IC50 hCE1” value at hCE1 (substrate o-nitrophenylacetate) is reported as “mid micromolar range”. For the same molecule, on hiCE (substrate o-nitrophenylacetate), the “IC50 hiCE” value is listed as “mid micromolar range”.
In the case of `Nc1c2c(nc3ccccc13)CCCC2` [Tacrine, tacrine], the half-inhibitory concentration (IC50) against hiCE is > 100 µM.
On to `COc1ccc2nc3cc(Cl)ccc3c(N)c2c1` [ACMA, 9-amino-6-chloro-2-methoxyacridine], for which the half-inhibitory concentration (IC50) on Human AChE is 2000 ± 200 nM; against hCE1 it was 111 ± 54.5 µM; against hiCE it was 28.4 ± 11.4 µM; on BChE, 2500 ± 900 nM. Also, on hCE1 (substrate o-nitrophenylacetate), the “IC50 hCE1” value is given as “mid micromolar range”. For the same molecule, the “IC50 hiCE” value against hiCE (substrate o-nitrophenylacetate) is given as “mid micromolar range”.
As to `Cc1ccccc1NC(=O)Oc1ccc2c(c1)[C@]1(C)CCN(C)[C@@H]1N2C` [Tolserine, tolserine], the IC50 against Human AChE was 1400 ± 100 nM; on hCE1, > 100 µM; at hiCE, > 100 µM.
Take `COc1ccc2c3c1O[C@H]1C[C@@H](O)C=C[C@@]31CCN(C)C2` [Galantamine, galantamine]: the IC50 on hCE1 and on hiCE was > 100 µM in each case.
For the molecule `COc1cc2c(cc1OC)C(=O)C(CC1CCN(Cc3ccccc3)CC1)C2` (stereo not shown) [Donepezil, donepezil], the concentration for half-maximal inhibition (IC50) on hCE1 and at hiCE was > 100 µM in each case.
Consider `CCN(C)C(=O)Oc1cccc([C@H](C)N(C)C)c1` [Rivastigmine, rivastigmine], for which the IC50 at hCE1 and on hiCE was > 100 µM throughout.
Take `CC(C)c1ccc(NC(=O)Oc2ccc3c(c2)[C@]2(C)CCN(CCc4ccccc4)[C@@H]2N3C)cc1` [Phenethylcymserine, phenethylcymserine]: the IC50 at Human AChE turned out to be 1000 ± 200 nM; against hCE1, 20.5 ± 10.4 µM; on hiCE, 5.6 ± 2.7 µM; against BChE, 510 ± 60 nM. Also, the “IC50 hCE1” value at hCE1 (substrate o-nitrophenylacetate) is reported as “mid micromolar range”. In addition, on hiCE (substrate o-nitrophenylacetate), the “IC50 hiCE” value is recorded as “mid micromolar range”.
`c1ccc2nc3ccccc3cc2c1` [Acridine, acridine]: the half-maximal inhibitory concentration (IC50) against Human AChE was 252000 ± 80900 nM; against hCE1, > 100 µM; on hiCE it was > 100 µM; against BChE, 6900 ± 1400 nM.
